Assay results as given in patent publication US6136845A (The Texas A&M University System, priority 1998, dated 2000).

Assays:
uterus [1] = experiment: Uterine wet weight in ovariectomized rats (Example 6, Table 6); type: in vivo, Sprague-Dawley rat; details: tamoxifen 0.4, 6-MCDF 0.8 mg/kg/day oral, 20 days
Excerpt: (§1) Rats were euthanized on day 21.

[2] = Body and organ weights in DMBA-treated rats
Protocol: (§2) Female virgin Sprague-Dawley rats were obtained from Harlan (Houston) and were allowed to acclimate for 10 days, allowed access to food and water ad libitum, and maintained on a 12 h light/dark schedule. Mammary tumors were induced in 50±3 day old-rats by administering a single gavage dose of 20 mg DMBA in 0.5 ml corn oil. […] Tumor sizes were measured with calipers, and volumes were calculated by formula (length×width×depth)/6π and are expressed as percent control. One week after their last injection, rats were euthanized by asphyxiation. All tumors were removed, weighed, and sectioned. One portion was frozen in liquid nitrogen for PCR analysis; one portion was placed in 10% formalin for histopathological analysis; and the majority was immediately homogenized for the preparation of microsomal and cytosolic fractions. Livers were perfused and weighed, and cytosol and microsomes were prepared as previously described.

[3] = cited from earlier work
uterine peroxidase [4] = experiment: Uterine peroxidase assay in ovariectomized rats (Example 4); type: in vivo, Sprague-Dawley rat; details: 0.4 mg/kg/day each oral, 20 days
Excerpt: as §1

ER = details: 21 to 25 day-old female Sprague-Dawley rat uterus; cited from earlier work
CYP1A1 [5] = details: result in words; cited from earlier work
[6] = Body and organ weights (Example 6, Table 7)
Protocol: For Table 7 and FIGS. 3 and 3B, exact aged virgin female Sprague-Dawley rats were dosed on day 55 in the afternoon with 20 mg/rat 7,12-dimethylbenz[a]anthacene in a volume of 0.5 ml/rat corn oil (rats weigh approximately 165 g, resulting in 120 mg/kg DMBA and 3 ml/kg corn oil).

uterus [7] = experiment: Uterine wet weight in ovariectomized rats (Example 4); type: in vivo, Sprague-Dawley rat; details: 0.4 mg/kg/day each oral, 20 days
Excerpt: (§3) Methods: Rats were ovariectomized at 97 days of age, and treatments began at 117 days of age. […] Rats were euthanized on day 21.

uterine peroxidase [8] = experiment: Uterine peroxidase activity in ovariectomized rats (Example 6, Table 6); type: in vivo, Sprague-Dawley rat; details: tamoxifen 0.4, 6-MCDF 0.8 mg/kg/day oral, 20 days
Excerpt: as §1

CYP1A1 [9] = details: cited from earlier work
Ah receptor = details: result in words; cited from earlier work
mammary tumors = experiment: DMBA-induced rat mammary tumor model, tumor volume and weight; type: in vivo, Sprague-Dawley rat; details: 20 days
Protocol: as §2, with “One week after their last injection, rats were euthanized by asphyxiation.” left out

PR = details: 21 to 25 day-old female Sprague-Dawley rat uterus; cited from earlier work
liver = details: result in words; cited from earlier work
[10] = test system: hepatic CYP1A1-dependent EROD activity; experiment: Hepatic EROD activity in DMBA-treated rats; details: 0.4 mg/kg/day each
Protocol: as §2

uterine cytosolic PR = experiment: Uterine cytosolic PR levels in ovariectomized rats (Example 4); type: in vivo, Sprague-Dawley rat; details: 0.4 mg/kg/day each oral, 20 days
Excerpt: as §1

[11] = test system: uterine progesterone receptor; experiment: Uterine progesterone receptor in ovariectomized rats (Example 6, Table 6); type: in vivo, Sprague-Dawley rat; details: tamoxifen 0.4, 6-MCDF 0.8 mg/kg/day oral, 20 days
Excerpt: as §1

mammary tumor = details: cited from earlier work
[12] = Body and organ weights (Examples 4 and 5)
Protocol: as §3
For the control vehicle and the MCDF vehicle ethanol was added (5% v/v) and then evaporated away.

femurs = experiment: Bone effects in ovariectomized rats (femur weight and length); type: in vivo, Sprague-Dawley rat; details: tamoxifen 0.4, 6-MCDF 0.8 mg/kg/day oral, 20 days
Protocol: The ovariectomized rat is used as a model for osteoporosis.
Rats were euthanized on day 21. After uteri were excised and processed, both left and right femurs were excised and the length measured with calipers. […] Wet weight was measured after residual connective tissue was stripped away. Dry weight was measured after the bones were dried for 12 ours at 130° C.

rat uterus = details: cited from earlier work
[13] = each drug 0.4 mg/kg/day by gavage, DMBA rats

## Cc1cc(Cl)cc2c1oc1cc(Cl)cc(Cl)c12 [6-MCDF, 6-methyl-1,3,8-trichlorodibenzofuran]
Uterus [1]; control 0.0583 ± 0.0055
  Uterine wet weight (% body weight): 0.0454 % body weight
Uterus [1]; control 0.171 ± 0.15
  Uterine wet weight: 0.131 g
[2]; 0.4 mg/kg/day each, 20 days, control 0.212 ± 0.017
  Uterine Wt.: 0.230 ± 0.037 % BW
[2]; 0.4 mg/kg/day each, 20 days, control 0.257 ± .022
  Spleen Wt.: 0.255 ± 0.017 % BW
[2]; 0.4 mg/kg/day each, 20 days, control 0.349 ± 0.007
  Kidney weight: 0.361 ± 0.016 % BW
[2]; 0.4 mg/kg/day each, 20 days, control 3.13 ± 0.12
  Liver weight: 3.49 ± 0.16 % BW
[2]; 0.4 mg/kg/day each, 20 days, control 250 ± 5
  Final Body Weight: 247 ± 4 g
[2]; rat, in vivo
  Heart weight: 0.405 ± 0.10 % BW
[3]; co-treatment with TCDD
  effect on TCDD induced toxic responses: inhibiter TCDD induced toxic responses
[3]; result in words
  toxicity: minimal toxicity
Uterine peroxidase [4]; per g uterus
  Uterine Peroxidase Assay (Abs/g uterus): 1.14 ± 0.02 Fold Increase over Control
Uterine peroxidase [4]; per mg protein
  Uterine Peroxidase Assay (Abs/mg protein): 1.05 ± 0.02 Fold Increase over Control
Uterine peroxidase [4]; per uterus
  Uterine Peroxidase Assay (Abs/uterus): 1.56 ± 0.03 Fold Increase over Control
ER
  nuclear and cytosolic ER binding: dose-dependent decrease
CYP1A1 [5]
  induction of hepatic CYP1A1-dependent activity: not accompanied by any significant changes
[6]; Table 7, baseline, control 255 ± 3
  Rat weight at start of treatments: 257 ± 4 g
[6]; Table 7, control 0.289 ± 0.018
  Spleen weight (% body weight): 0.265 ± 0.014 % body weight
[6]; Table 7, control 0.334 ± 0.010
  Kidney weight (% body weight): 0.352 ± 0.015 % body weight
[6]; Table 7, control 0.360 ± 0.010
  Heart weight (% body weight): 0.356 ± 0.012 % body weight
[6]; Table 7, control 295 ± 11
  Rat weight prior to euthanasia: 289 ± 7 g
Uterus [7]; control 0.045 ± 0.002
  Uterine Wet Weight (% body wt): 0.060 ± 0.006 % body wt
Uterus [7]; control 0.131 ± 0.006
  Uterine Wet Weight: 0.180 ± 0.019 g
Uterine peroxidase [8]; per g uterus
  Uterine Peroxidase Activity (Absorbance/g uterus): 0.88 ± 0.01 Fold Increase over control
Uterine peroxidase [8]; per mg protein
  Uterine Peroxidase Activity (Absorbance/mg protein): 0.99 ± 0.01 Fold Increase over control
Uterine peroxidase [8]; per uterus
  Uterine Peroxidase Activity (Absorbance/uterus): 0.57 ± 0.01 Fold Increase over control
CYP1A1 [9]; less potent than TCDD, same animals
  potency as inducer of hepatic CYP1A1 relative to TCDD (times less potent): > 157,000 times
CYP1A1 [9]; result in words
  induction of CYP1A1: weak inducer of CYP1A1
Ah receptor
  binding to the Ah receptor: bound to the Ah receptor
Mammary tumors; 0.4 mg/kg/day each, control 3.82 ± 1.18
  Tumor Weight: 1.68 ± 0.53 g
Mammary tumors; 0.4 mg/kg/day each, control 100 ± 27.7
  Tumor Wt (% Control): 43.9 ± 12.8 % Control
Mammary tumors; 0.4 mg/kg/day each, control 100 ± 31.5
  Final Tumor Volume (% Control): 33.6 ± 11.2 % Control
Mammary tumors; 0.4 mg/kg/day each, control 2734 ± 956
  Final Tumor Volume: 918 ± 305 mm^3
Mammary tumors; [13]
  % Inhibition tumor volume: 66.4%
  % Inhibition tumor weight: NS decrease
PR
  nuclear and cytosolic progesterone receptor (PR) binding: dose-dependent decrease
liver
  liver morphology: not accompanied by any significant changes
  liver/body weight ratios: not accompanied by any significant changes
[10]; 20 days, control 118 ± 40
  EROD activity: 140 ± 32 pmol/mg/min
[10]; result in words
  induction of hepatic EROD activity: did not induce
Uterine cytosolic PR; control 308 ± 142
  Uterine cytosolic PR levels (fmol/mg protein): 338 ± 31 fmol/mg protein
Uterine cytosolic PR; control 1100 ± 508
  Uterine cytosolic PR levels (fmol/uterus): 1925 ± 177 fmol/uterus
Uterine cytosolic PR; control 8368 ± 3868
  Uterine cytosolic PR levels (fmol/g uterus): 10693 ± 986 fmol/g uterus
[11]; control 198 ± 15
  Uterine Progesterone Receptor (fmol/mg protein): 152.9 ± 35 fmol/mg protein
[11]; control 765 ± 69
  Uterine Progesterone Receptor (fmol/uterus): 441.5 ± 100 fmol/uterus
[11]; control 4462 ± 343
  Uterine Progesterone Receptor (fmol/g uterus): 3985 ± 907 fmol/g uterus
Mammary tumor; 5 mg/kg/wk
  growth inhibition: > 50%
Mammary tumor; 5, 10 or 25 mg/kg/wk, result in words
  mammary tumor growth: significantly inhibited
[12]; 0.4 mg/kg/day oral, 20 days, ovariectomized rats, result in words
  splenic wet weight: slight but significant increase
[12]; Table 5, baseline, control 273.1 ± 8.1
  Rat weight at start of treatments: 274.7 ± 7.0 g
[12]; Table 5, control 0.247 ± 0.007
  Spleen wet weight (% body wt): 0.298 ± 0.015 % body wt
[12]; Table 5, control 0.318 ± 0.010
  kidney weight (% body wt): 0.332 ± .004 % body wt
[12]; Table 5, control 0.319 ± 0.006
  Heart weight (% body wt): 0.344 ± 0.014 % body wt
[12]; Table 5, control 0.72O ± 0.012
  Spleen wet weight: 0.887 ± 0.043 g
[12]; Table 5, control 0.933 ± 0.038
  Kidney weight: 0.991 ± 0.026 g
[12]; Table 5, control 0.935 ± 0.039
  Heart weight: 1.024 ± 0.037 g
[12]; Table 5, control 4.06 ± 0.23
  Liver weight (% body wt): 4.37 ± 0.26 % body wt
[12]; Table 5, control 11.88 ± 0.78
  Liver weight: 13.04 ± 0.87 g
[12]; Table 5, control 293.2 ± 10.9
  Rat weight prior to euthanasia: 298.3 ± 5.0 g
femurs; control 0.180 ± 0.005
  Dry bone weight: 0.183 ± 0.003 % body weight
femurs; control 0.347 ± 0.009
  Wet bone weight: 0.341 ± 0.008 % body weight
femurs; control 12.1 ± 0.4
  Bone length index: 12.17 ± 0.3 mm/body weight × 100
Rat uterus; rat uterus
  E2-induced hypertrophy, peroxidase activity, cytosolic ER and PR binding, EGF receptor and c-fos mRNA levels: inhibited
  effect on TCDD-induced antiestrogenic activity: did not inhibit
Rat uterus; result in words
  antiestrogenicity in the rat uterus: antiestrogen in the rat uterus
